Where two headings read alike, the source gives them in different places.
Columns and labels:
tgDHFR = tgDHFR (Toxoplasma gondii, UniProt Q07422); assay: Spectrophotometric DHFR inhibition assay, T. gondii enzyme; type: biochemical; conditions: IC50 rlDHFR / IC50 tgDHFR
Solubility = type: physicochemical; conditions: qualitative statement
[1] = first study, i.p. 50 mg/kg/day, mouse
[2] = second study, i.p. 50 mg/kg/day, mouse

Sequence of tgDHFR (Q07422 whole entry): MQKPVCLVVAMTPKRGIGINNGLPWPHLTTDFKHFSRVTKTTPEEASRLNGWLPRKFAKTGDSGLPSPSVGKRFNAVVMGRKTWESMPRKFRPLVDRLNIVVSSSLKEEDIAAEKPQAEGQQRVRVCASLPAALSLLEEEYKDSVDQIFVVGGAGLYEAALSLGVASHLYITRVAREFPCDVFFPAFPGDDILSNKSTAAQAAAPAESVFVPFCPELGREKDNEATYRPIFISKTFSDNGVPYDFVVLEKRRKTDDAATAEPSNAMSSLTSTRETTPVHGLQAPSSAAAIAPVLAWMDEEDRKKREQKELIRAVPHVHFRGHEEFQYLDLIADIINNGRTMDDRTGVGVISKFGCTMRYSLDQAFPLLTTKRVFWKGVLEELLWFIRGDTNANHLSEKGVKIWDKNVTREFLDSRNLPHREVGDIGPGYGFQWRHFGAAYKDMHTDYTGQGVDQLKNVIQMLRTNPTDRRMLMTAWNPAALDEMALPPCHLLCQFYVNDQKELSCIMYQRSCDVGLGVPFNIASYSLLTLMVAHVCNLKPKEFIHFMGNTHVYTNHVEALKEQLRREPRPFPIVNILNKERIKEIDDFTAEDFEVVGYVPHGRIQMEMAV

Compound	selectivity ratio rl/tg (tgDHFR)	solubility properties (Solubility)	Mean counts of T. gondii per 1000x field in peritoneal harvest (T. gondii; [1]) [counts per 1000x field]	Median counts of T. gondii per 1000x field in peritoneal harvest (T. gondii; [1]) [counts per 1000x field]	gross toxicity in treated mice (T. gondii; mouse, in vivo, ip, 50 mg/kg/day)	reduction of the median counts per 1000x field versus control (T. gondii; second study, i.p. 50 mg/kg/day)	Mean counts of T. gondii per 1000x field in peritoneal harvest (T. gondii; [2]) [counts per 1000x field]	Median counts of T. gondii per 1000x field in peritoneal harvest (T. gondii; [2]) [counts per 1000x field]
Cc1c(Sc2ccc3ccccc3c2)[nH]c2nc(N)nc(N)c12 [Compound 90, 2,4-Diamino-5-methyl-6-(2-naphthylthio)pyrrolo[2,3-d]pyrimidine]	5							
Cc1cccc(C)c1Sc1[nH]c2nc(N)nc(N)c2c1C [Compound 91, 2,4-Diamino-5-methyl-6-(2′,6′-dimethylphenylthio)pyrrolo[2,3-d]pyrimidine]		poor solubility properties	12.5	7.0	no gross evidence of toxicity	more than two-fold	8.9	5.0
Cc1cccc(C)c1Sc1[nH]c2nc(N)nc(N)c2c1C.Cl [Compound 95, 2,4-Diamino-5-methyl-6-(2′,6′-dimethylphenylthio)pyrrolo[2,3-d]pyrimidine hydrochloride salt]		more soluble					2.4	1.0

— PMC2845980 (Bioorganic & medicinal chemistry, 2010)
